The record followed here is patent US20040121947A1, “Compounds which inhibit beta-secretase activity and methods of use thereof” (Oklahoma Medical Research Foundation, priority 2000, published 2004).

pKi: −log10 of the molar value. Where two headings read alike, the source gives them in different places.

The target of this assay is T1, memapsin 2 (Homo sapiens, UniProt P56817).
T1 construct: pET-11 vector-derived residues 1-15 of promemapsin 2-T1 (N, cleaved yes); made in house; host or cells: E. coli
Kind of assay: Inhibition of memapsin 2 proteolytic activity, fluorogenic substrate FS-2. The class given is biochemical. The conditions noted are these: for Vi/Vo: ratio of initial cleavage velocities of FS-2 with/without compound, enzyme and inhibitor concentrations equal (e.g., about 80 nM, 100 nM); for pKi: memapsin 2. As for the experimental part: Ki is the inhibition equilibrium constant which indicates the ability of compounds to inhibit the β-secretase activity of memapsin 2 and memapsin 1. […] The K1 value is independent of the substrate, and converted from Ki apparent.
The Vi/Vo values depicted in Table 1 were determined at conditions under which the enzyme and inhibitor concentrations were equal (e.g., about 80 nM, 100 nM).
The relationship of Ki (independent of substrate concentration) to Kiapp is a function of substrate concentration in the assay and the Km for cleavage of the substrate by either memapsin 1 or memapsin 2 by the relationship:
The spontaneously activated memapsin 2 was employed in assays to assess the inhibition of memapsin 2 relative to memapsin 1 by compounds of the invention and in some crystallization studies.
An aliquot of the inhibitor of known concentration in DMSO was diluted into 1.8 ml 0.1 M NaOAc, pH 4.0. DMSO and added to a final concentration of 10% (v/v), and memapsin 2 (final concentration of 80 nM), followed by a 20 minute equilibration at 37° C. Compounds were evaluated for the ability to inhibit memapsin 1 and memapsin 2 at concentrations between about 10 nM and about 10 μm of inhibitor.

[1] abbreviates: apparent Ki in presence of substrate FS-2, read-out: Ki app.
Setting [2] is: independent of substrate, converted from Ki apparent, read-out: Ki.

T1 sequence (P56817 41-454 limits assumed): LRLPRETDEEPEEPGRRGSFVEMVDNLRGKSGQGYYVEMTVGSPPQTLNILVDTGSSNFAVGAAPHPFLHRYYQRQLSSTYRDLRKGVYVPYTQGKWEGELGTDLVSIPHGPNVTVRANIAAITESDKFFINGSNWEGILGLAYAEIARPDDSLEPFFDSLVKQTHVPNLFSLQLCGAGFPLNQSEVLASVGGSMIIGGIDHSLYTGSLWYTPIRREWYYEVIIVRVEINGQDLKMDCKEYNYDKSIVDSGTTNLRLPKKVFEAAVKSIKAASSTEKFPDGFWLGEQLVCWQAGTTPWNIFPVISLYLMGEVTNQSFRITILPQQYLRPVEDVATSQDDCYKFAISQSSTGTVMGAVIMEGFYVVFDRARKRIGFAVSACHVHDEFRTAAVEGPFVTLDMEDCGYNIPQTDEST

For the compound `CSCC[C@H](NC(=O)OCc1ccco1)C(=O)N[C@@H](CC(C)C)[C@@H](O)C[C@@H](C)C(=O)N[C@H](C(=O)NCc1ccccc1)C(C)C` [MMI-119], the Vi/Vo is 0.38. As for `CSCC[C@H](NC(=O)c1cccc(O)c1C)C(=O)N[C@@H](CC(C)C)[C@@H](O)C[C@@H](C)C(=O)N[C@@H](CC(C)C)C(=O)NCc1ccccc1` [MMI-120], the Vi/Vo is 0.66. In addition, the Ki (Ki, [I] < 100, memapsin 2, [I] < 100 (nM)) is 175 nM. In addition, the pKi under setting [1] is 5.74. In addition, under setting [2], the pKi is 5.95.

Take `CSCC[C@H](NC(=O)[C@@H](NC(=O)c1cccc(O)c1C)C(C)C)C(=O)N[C@@H](CC(C)C)[C@@H](O)C[C@@H](C)C(=O)N[C@@H](CC(C)C)C(=O)NCc1ccccc1` [MMI-121]: the pKi by setting is: under setting [1], 5.02; under setting [2], 5.22. As for `Cc1c(O)cccc1C(=O)N[C@H](C(=O)N[C@@H](CCS(C)(=O)=O)C(=O)N[C@@H](CC(C)C)[C@@H](O)C[C@@H](C)C(=O)N[C@@H](CC(C)C)C(=O)NCc1ccccc1)C(C)C` [MMI-122], the Vi/Vo was determined as 1.17. Still for that read-out and setting: next, `Cc1c(O)cccc1C(=O)N[C@@H](CCS(C)(=O)=O)C(=O)N[C@@H](CC(C)C)[C@@H](O)C[C@@H](C)C(=O)N[C@@H](CC(C)C)C(=O)NCc1ccccc1` [MMI-123]: 0.61; `CSC[C@H](NC(=O)OCc1ccccn1)C(=O)N[C@@H](CC(C)C)[C@@H](O)C[C@@H](C)C(=O)N[C@@H](CC(C)C)C(=O)NCc1ccccc1` [MMI-124]: 0.93; `CSC[C@H](NC(=O)OCc1ccccn1)C(=O)N[C@@H](CC(C)C)[C@@H](O)C[C@@H](C)C(=O)N[C@H](C(=O)NCc1ccccc1)C(C)C` [MMI-125]: 0.76.

With `CC(C)C[C@H](NC(=O)[C@H](C)C[C@H](O)[C@H](CC(C)C)NC(=O)[C@H](CS(C)(=O)=O)NC(=O)OCc1ccccn1)C(=O)NCc1ccccc1` [MMI-126], the Vi/Vo is on record as 0.72. `CSCC[C@H](NC(=O)OCc1ccc(CN(C)C)o1)C(=O)N[C@@H](CC(C)C)[C@@H](O)C[C@@H](C)C(=O)N[C@H](C(=O)NCc1ccccc1)C(C)C` [MMI-127]: the pKi is 5.16 under setting [1] and 5.37 under setting [2]. On to `CC(C)C[C@H](NC(=O)[C@H](CS(C)(=O)=O)NC(=O)OCc1ccncc1)[C@@H](O)C[C@@H](C)C(=O)N[C@H](C(=O)NCc1ccccc1)C(C)C` [MMI-128], for which the Vi/Vo is reported as 0.66. Still for that read-out and setting: next, `CC(C)C[C@H](NC(=O)[C@H](CCS(C)(=O)=O)NC(=O)OCc1ccc(CN(C)C)o1)[C@@H](O)C[C@@H](C)C(=O)N[C@H](C(=O)NCc1ccccc1)C(C)C` [MMI-129]: 1.01.

Take `CSCC[C@H](NC(=O)[C@@H](NC(=O)OC(C)(C)C)C(C)C)C(=O)N[C@@H](CC(C)C)[C@@H](O)C[C@@H](C)C(=O)N[C@@H](C(C)C)C1CCCCO1` (stereo partly drawn) [MMI-130]: under setting [2], the pKi was 4.16. `CSCC[C@H](NC(=O)[C@@H](NC(=O)OC(C)(C)C)C(C)C)C(=O)N[C@@H](CC(C)C)[C@@H](O)C[C@@H](C)C(=O)N[C@@H](C(C)C)C1CCCCO1` (stereo partly drawn) [MMI-131]: the pKi reads like this: under setting [1], 4.03; under setting [2], 4.24. Turning to `CSCC[C@H](NC(=O)[C@H](CC(C)C)NC(=O)OC(C)(C)C)C(=O)N[C@@H](CC(C)C)[C@H](O)C[C@H](C)C(=O)N[C@H](C(=O)NCc1ccccc1)C(C)C` [MMI-133], the Vi/Vo was determined as 0.09. Under setting [1], the pKi was 9.28. Further, the pKi under setting [2] was 9.48. On to `CC(C)CNC(=O)[C@@H](NC(=O)[C@H](C)C[C@H](O)[C@H](CC(C)C)NC(=O)[C@H](CCS(C)(=O)=O)NC(=O)[C@H](CC(C)C)NC(=O)OC(C)(C)C)C(C)C` [MMI-135], for which the Vi/Vo is 0.12. Under setting [1], the pKi was 7.99. For the same compound, the pKi under setting [2] is 8.19. As to `CC(C)C[C@H](NC(=O)[C@H](CCS(C)(=O)=O)NC(=O)OCc1ccco1)[C@@H](O)C[C@@H](C)C(=O)N[C@H](C(=O)NCc1ccccc1)C(C)C` [MMI-136], the Vi/Vo was 0.87.

Turning to `CC(C)C[C@H](NC(=O)[C@H](CCS(C)(=O)=O)NC(=O)OCc1ccoc1)[C@@H](O)C[C@@H](C)C(=O)N[C@H](C(=O)NCc1ccccc1)C(C)C` [MMI-137], the Vi/Vo was 0.85.

The term Ki denotes a measure of affinity in units of concentration, obtained from inhibition or displacement. Low values mean tighter binding, high ones weaker binding. What is called pKi is the negative decadic logarithm of the Ki, by convention in mol/L.
